Columns and labels:
[1] = system: participants with SSc-RP; assay: SHAQ Visual Analog Scale - Pain; type: in vivo, human
Experimental: Results: Patients in the study were administered the Scleroderma Health Assessment Questionnaire (SHAQ) at the time of study entry and during clinic visits following the treatment period. The study is a two-part, parallel arm design, prospective, double-blind, randomized study conducted in Australia (Flinders Medical Center). 27 patients were randomized into the first phase of the study, following which a DSMB meeting was held, which reviewed data on the primary study endpoint and key Raynaud's secondary endpoints. Data on the SHAQ was not available for the DSMB to review. The mITT population, in which any data was available post treatment was 24 patients was the analysis population for this first part of the study. The second part (i.e., part B) of the study will randomize 36 patients in a double blind, randomized, prospective, placebo controlled, crossover study. In the first part (i.e., Part A) of the study for which data is presented, patients were randomized into 6 groups, cilnidipine at two doses (10 and 20 mg) alone and in combination with tadalafil 5 mg, tadalafil 5 mg alone, and placebo. […] The DSMB recommended that the study proceed into its double blind prospective cross overpowered second phase and compare cilnidipine 20 mg alone to placebo. […] Cilnidipine treatment may reduce patient-reported SSc disease disability compared to placebo • b. Cilnidipine treatment may reduce patient-reported SSc disease alternative disability compared to placebo • c. Cilnidipine treatment may reduce patient-reported SSc disease pain* compared to placebo • d. Cilnidipine treatment may reduce patient-reported SSc disease severity compared to placebo • e. Cilnidipine treatment may reduce patient-reported SSc disease skin ulcer severity rating compared to placebo • f Cilnidipine treatment may reduce patient-reported SSc disease breathing difficulty compared to placebo • g. […] SSc disease pain comprises not only pain from Raynaud's but joint pain, headache, odynophagia, back pain, pain from skin ulceration, and neuropathic pain). Table E includes results of the Scleroderma Health Assessment Questionnaire.
Pain on the SHAQ outcome measure on the first line in table F is a composite of all pain experienced in patients with SSc, comprising joint pain, back pain, headache, odynophagia, skin ulcer related discomfort, Raynaud's, and neuropathic pain. Aisa Pharma believes, based on the biologic attributes and actions of cilnidipine that differ from most dihydropyridine calcium channel antagonists that cilnidipine might have direct analgesic effects in certain pain conditions and in fact has been designated to receive evaluation through the NIH-NINDS Preclinical Pain Screening Platform Program to investigate the drug in multiple in vitro and in vivo preclinical models of pain that are validated and predictive of effects in man.

[2] = system: participants with SSc-RP; assay: Average severity (0-10) of weekly symptomatic RP attacks; type: in vivo, human; details: Example 3
From the text: The relevant metrics measured by this tool daily are: • Study medication • SSc-RP symptoms (Reporting an attack including duration of attack) • Severity of the attack considering all symptoms of the attack e.g. tingling, numbness, pain, color changes (VAS 0-10 cm scale) • Participant's location at the time of the attack (inside home/outside home) • Selecting symptoms experienced during the attack (tingling, numbness, pain, color changes, other) • Pain rating during the attack (11-point Likert scale) • The RCS based on how much difficulty participants had with Raynaud's today, how many attacks the participant had, and how long they lasted. Participants will also be asked to consider how much pain, numbness, or other symptoms the Raynaud's caused in fingers (including painful sores), and how much the Raynaud's alone affected the use of hands today (VAS 0-10 cm scale).
The absolute change in average severity of weekly RP attacks (VAS 0-10 cm scale) from baseline to the end of each Dosing Period was and will be a secondary outcome variable. The sponsor-developed participant-informed diary will be used to record data. Average severity of weekly RP attacks is defined as the total severity scores of RP attacks divided by total number of RP attacks within the last 7 days of each dosing period. […] The variable will be calculated similar to frequency data as before.

[3] = Tadalafil 5 mg, Modified ITT, Part A

Row | SMILES | VAS- PAIN, Baseline on a 0-10 VAS ([1]; Cilnidipine 20 mg (n = 3), footnote *) | Visual Analog Scale-Pain, Baseline, Median ([1]; Cilnidipine 20 mg, Modified ITT, Part A) | patient-reported SSc disease pain compared to placebo ([1]; Example 4, SHAQ, mITT Part A) | severity of attacks as reported by patients, comparison in words [2] | Visual Analog Scale-Pain, Baseline, Mean [1, 3] | Visual Analog Scale-Pain, Baseline, Median [1, 3] | Visual Analog Scale-Pain, Change from Baseline, Mean [1, 3] | Visual Analog Scale-Pain, Change from Baseline, Median [1, 3] | Visual Analog Scale-Pain, In Clinic Visit (Day 12), Mean [1, 3] | Visual Analog Scale-Pain, In Clinic Visit (Day 12), Median [1, 3] | Visual Analog Scale-Pain, Percent Change from Baseline, Mean [1, 3] | Visual Analog Scale-Pain, Percent Change from Baseline, Median [1, 3]
1 | COCCOC(=O)C1=C(C)NC(C)=C(C(=O)OC/C=C/c2ccccc2)C1c1cccc([N+](=O)[O-])c1 (stereo not drawn) [Cilnidipine, 1,4-dihydro-2,6-dimethyl,4-(3-nitrophenyl)-3,5-pyridinedicarboxylic acid 2-methoxyethyl (2 E)-3-phenyl-2-propenyl ester] | *Baseline was 2.17 on a 0-10 VAS | 1.500 | may reduce | 20 mg reducing severity more than 10 mg |  |  |  |  |  |  |  | 
2 | CN1CC(=O)N2[C@H](c3ccc4c(c3)OCO4)c3[nH]c4ccccc4c3C[C@@H]2C1=O [Tadalafil] |  |  |  |  | 3.167 | 2.900 | −0.300 | −0.100 | 2.700 | 2.150 | −14.24% | −4.55%

Reference: patent publication US20240398771A1, “TREATMENT OF SCLERODERMA AND RAYNAUD'S SYNDROME” (Aisa Pharma, Inc., priority 2023, published 2024)
